From patent US8119647B2, “Fused pyrimidineone compounds as TRPV3 modulators” (Glenmark Pharmaceuticals S.A., priority 2008, dated 2012)

Biological target: T1, Human TRPV3 (Homo sapiens, UniProt Q8NET8)
T1 construct: expressed in transfected cells; host or cells: CHO cells (G-418 selection)
T1 sequence (Q8NET8 1-790): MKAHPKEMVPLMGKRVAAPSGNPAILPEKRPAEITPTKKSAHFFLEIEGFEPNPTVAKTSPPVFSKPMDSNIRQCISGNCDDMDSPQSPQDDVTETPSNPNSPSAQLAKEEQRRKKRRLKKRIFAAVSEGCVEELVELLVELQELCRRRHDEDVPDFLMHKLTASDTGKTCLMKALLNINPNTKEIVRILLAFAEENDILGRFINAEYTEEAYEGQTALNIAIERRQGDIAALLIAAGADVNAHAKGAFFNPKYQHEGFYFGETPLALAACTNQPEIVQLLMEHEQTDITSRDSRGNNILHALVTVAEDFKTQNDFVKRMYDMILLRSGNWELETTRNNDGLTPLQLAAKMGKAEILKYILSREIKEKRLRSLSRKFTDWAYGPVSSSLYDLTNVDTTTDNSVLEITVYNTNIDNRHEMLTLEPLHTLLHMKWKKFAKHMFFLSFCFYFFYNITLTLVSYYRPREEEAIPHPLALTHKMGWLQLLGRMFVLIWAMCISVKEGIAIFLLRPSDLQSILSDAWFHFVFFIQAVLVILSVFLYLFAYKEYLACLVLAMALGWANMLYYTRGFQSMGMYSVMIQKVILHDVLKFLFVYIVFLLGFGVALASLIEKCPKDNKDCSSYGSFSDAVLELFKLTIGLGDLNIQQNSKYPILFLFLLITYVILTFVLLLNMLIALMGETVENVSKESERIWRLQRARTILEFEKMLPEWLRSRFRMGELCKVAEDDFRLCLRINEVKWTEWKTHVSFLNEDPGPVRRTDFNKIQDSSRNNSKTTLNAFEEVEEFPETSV
Experiment: Screening for TRPV3 antagonist using the 45Calcium uptake assay (inhibition of 2-APB induced cellular uptake of radioactive calcium)
Type: cell-based
Conditions: human TRPV3 expressing CHO cells, 2-APB 500 μM; for inhibition at 1 µM / Percentage inhibition at 1.0 μM: 1.0 μM test compound; for inhibition at 1 µM: read-out: Percentage inhibition at 1.0 μM; for inhibition at 10 µM / Percentage inhibition at 10.0 μM: 10.0 μM test compound; for inhibition at 10 µM: read-out: Percentage inhibition at 10.0 μM; for IC50: class symbols
Outline: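 CHO cells stably expressing human TRPV3, preincubated 10 min with test compound, then 2-APB (500 μM final) plus 5 μCi/ml 45Ca2+ for 4 min in DMEM/F-12 with 1.8 mM CaCl2; 0.5% DMSO final. Lysate radioactivity by scintillation counting. IC50 by nonlinear regression of % maximal response; % inhibition at 1.0 and 10.0 μM.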

Row | inhibition at 1 µM | inhibition at 10 µM | IC50 | Compound | Percentage inhibition at 1.0 μM | Percentage inhibition at 10.0 μM
1 | 61.9% | 79.3% |  | COc1cccc(/C=C/c2nc3scc(C)n3c(=O)c2-c2ccc(OC(F)(F)F)cc2)c1OCC1CC1 [Example 76, 7-[(E)-2-(2-Cyclopropylmethoxy-3-methoxyphenyl)-1-ethenyl]-3-methyl-6-[4-(trifluoromethoxy)phenyl]-5H-[1,3]thiazolo[3,2-a]pyrimidin-5-one] |  | 
2 | 15.4% | 1.2% |  | N#Cc1ccc(-c2c(/C=C/c3cccnc3)nc3sccn3c2=O)cc1 [Example 23, 4-{5-Oxo-7-[(E)-2-(3-pyridyl)-1-ethenyl]-5H-[1,3]thiazolo[3,2-a]pyrimidin-6-yl}-benzonitrile] |  | 
3 | 92.8% | 95.9% | < 250 nM | COc1cccc(/C=C/c2nc3sccn3c(=O)c2-c2ccc(OC(F)(F)F)cc2)c1OCC1CC1 [Example 58, 7-{(E)-2-[2-(Cyclopropylmethoxy)-3-methoxyphenyl}-1-ethenyl]-6-(4-trifluoromethoxyphenyl)-5H-[1,3]thiazolo[3,2-a]pyrimidin-5-one] |  | 
4 | 85.3% | 97.4% | < 250 nM | COc1cccc(/C=C/c2nc3sccn3c(=O)c2-c2ccc(C(F)(F)F)cc2)c1OCC1CC1 [Example 33, {7-[(E)-2-(2-Cyclopropylmethoxy)-3-methoxyphenyl]-1-ethenyl]-6-[4-(trifluoromethyl)phenyl]-5H-[1,3]thiazolo[3,2-a]pyrimidin-5-one] |  | 
5 | 73% | 91.1% | < 250 nM | COc1cccc(/C=C/c2nc3sccn3c(=O)c2-c2ccc(C#N)cc2)c1OCC1CCC1 [Example 17, 4-{7-[(E)-2-(2-Cyclobutylmethoxy-3-methoxy)phenyl-1-ethenyl]-5-oxo-5H-[1,3]-thiazolo[3,2-a]pyrimidin-6-yl}benzonitrile] |  | 
6 |  |  |  | 7-[(E)-2-(4-Chlorophenyl)vinyl]-6-phenyl-5H-[1,3]thiazolo[3,2-a]pyrimidin-5-one [Example 1] | 6.9% | 14.4%
7 | 81.4% | 91.8% | < 250 nM | O=c1c(-c2ccc(OC(F)(F)F)cc2)c(/C=C/c2cccc(OC(F)F)c2OCC2CC2)nc2sccn12 [Example 63, 7-{(E)-2-[2-(Cyclopropylmethoxy)-3-difluoromethoxyphenyl]-1-ethenyl}-6-(4-trifluoromethoxyphenyl)-5H-[1,3]thiazolo[3,2-a]pyrimidin-5-one] |  | 

Row | Compound | inhibition at 1 µM | inhibition at 10 µM | IC50 | Percentage inhibition at 1.0 μM | Percentage inhibition at 10.0 μM
8 | COc1cccc(/C=C/c2nc3sccn3c(=O)c2-c2ccc(C#N)cc2)c1OC1CCCC1 [Example 18, 4-{7-[(E)-2-(2-Cyclopentyloxy-3-methoxy)phenyl-1-ethenyl]-5-oxo-5H-[1,3]thiazolo-[3,2-a]pyrimidin-6-yl}benzonitrile] |  |  | < 250 nM | 85.0% | 94.2%
9 | COc1cccc(/C=C/c2nc3sccn3c(=O)c2-c2ccc(N(C)C)cc2)c1OCC(C)C [Example 41, 6-(4-Dimethylaminophenyl)-7-[(E)-2-(2-isobutoxy-3-methoxyphenyl)-1-ethenyl]-5H-[1,3]thiazolo[3,2-a]pyrimidin-5-one] | 75.5% | 84.5% | 250 to 500 nM |  | 
10 | CCCCOc1c(/C=C/c2nc3sccn3c(=O)c2-c2ccc(C(F)(F)F)cc2)cccc1OC [Example 26, 7-[(E)-2-(2-Butoxy-3-methoxyphenyl)-1-ethenyl]-6-[4-(trifluoromethyl)phenyl]-5H-[1,3]thiazolo[3,2-a]pyrimidin-5-one] | 56.6% | 84.5% |  |  | 
